In the Deep4Chem optical property database:

Assay: solvent given as SMILES

CC1=CC(C)=[N+]2C1=Cc1c3ccccc3c(C#Cc3ccccc3)n1[B-]2(F)F showed an absorption maximum (in CCCCCC) of 608 nm, an absorption maximum (in CCCCCCCCO) of 612 nm and an absorption maximum (in CCOC(C)=O) of 606 nm. For the same compound, the absorption maximum (in CN(C)C=O) was 612 nm and the absorption maximum (in ClCCl) was 612 nm.

Compound COc1ccc(/C=C/C(=O)c2c(O)cc(C)oc2=O)cc1 has an absorption maximum (in CC#N) of 380 nm and an absorption maximum (in ClCCl) of 384 nm.

Work on FC(F)(F)c1ccc(C#Cc2ncc(-c3ccccc3)o2)cc1 yielded an absorption maximum (in ClCCl) of 320 nm.

CC1=[N+]2C(=C(c3ccccc3)c3c4ccccc4c(C)n3[B-]2(F)F)c2ccccc21 gave an absorption maximum (in CC#N) of 597 nm.

Work on CC1=c2cc3c(C)c4n(c3cc2=[N+]2C1=Cc1c3ccccc3c(C)n1[B-]2(F)F)[B-](F)(F)[N+]1=C(C)c2ccccc2C1=C4 yielded an absorption maximum (in ClC(Cl)Cl) of 775 nm.

CCCCCCCCOc1ccc2c3cccc4c(OCCCCCCCC)ccc(c5cccc1c52)c43 gave an absorption maximum (in C1CCOC1) of 460 nm, an absorption maximum (in Cc1ccccc1) of 462 nm and an absorption maximum (in ClC(Cl)(Cl)Cl) of 462 nm. It also gave an absorption maximum (in ClC(Cl)Cl) of 462 nm, an absorption maximum (in ClCCl) of 461 nm and an absorption maximum (in c1ccncc1) of 464 nm.

In the case of Cc1cc(C)c(C2=C3C=C(/C=C/C(=O)OCc4ccccc4)C=[N+]3[B-](F)(F)n3cc(/C=C/C(=O)OCc4ccccc4)cc32)c(C)c1, the absorption maximum (in ClCCl) is reported as 576 nm.

CCCCC(CC)Cn1c2cc(C#N)ccc2c2ccc(C#Cc3ccc4ccc5c(C#Cc6ccc7c8ccc(C#N)cc8n(CC(CC)CCCC)c7c6)cc(C#Cc6ccc7c8ccc(C#N)cc8n(CC(CC)CCCC)c7c6)c6ccc3c4c56)cc21 (stereo not given) showed an absorption maximum (in ClCCl) of 447 nm.

Work on C(=C1c2ccccc2-c2ccccc21)c1ccc(C=C2c3ccccc3-c3ccccc32)cc1 yielded an absorption maximum (in C1CCOC1) of 365 nm.

Compound c1ccc(-n2c3ccccc3c3cc(-c4cccc(-n5c6ccccc6c6c7sc8ccccc8c7ccc65)c4)ccc32)cc1 has an absorption maximum (in ClCCl) of 355 nm.

For CC(C)[Si](C#Cc1c2nc3c(nc2c(C#C[Si](C(C)C)(C(C)C)C(C)C)c2nc4c(nc12)C1c2ccccc2C4c2ccccc21)C1c2ccccc2C3c2ccccc21)(C(C)C)C(C)C, the absorption maximum (in CCCCCC) was 450 nm.

Work on CCn1c2ccc(-c3ccc(-c4cccs4)s3)cc2c2cc(-c3ccc(-c4cccs4)s3)ccc21 yielded an absorption maximum (in ClCCl) of 380 nm.

Compound Clc1nc(Cl)nc(Nc2ccc3cc4ccccc4cc3c2)n1 has an absorption maximum (in C1COCCO1) of 396 nm, an absorption maximum (in CC#N) of 398 nm and an absorption maximum (in CCCCOCCCC) of 395 nm. It also gave an absorption maximum (in CCOC(C)=O) of 394 nm.

CCC(CC)COC1=CC2=C3c4cc(OCC(CC)CC)c(-c5ccccc5)n4[B-](F)(F)[n+]4nnn(c43)[B-](F)(F)[N+]2=C1c1ccccc1 gave an absorption maximum (in C1CCOC1) of 691 nm, an absorption maximum (in CC#N) of 687 nm and an absorption maximum (in ClCCl) of 700 nm.

C#CCOc1ccc(/C=C/C2=[N+]3C(=C(c4ccc(N(CC)CC)cc4)c4c(C)cc(/C=C/c5ccc(OCC(=O)OC)cc5)n4[B-]3(F)F)C(C)=C2)cc1 showed an absorption maximum (in CO) of 640 nm.

In the case of CCCCN(CCCC)c1ccc2c(c1)C#CC#Cc1cc(C(F)(F)F)ccc1C#Cc1cc(c3cc1C#Cc1ccc(N(CCCC)CCCC)cc1C#CC#Cc1cc(C(F)(F)F)ccc1C#C3)C#C2, the absorption maximum (in ClCCl) is reported as 477 nm.

C[Si]1(C)C2=C(c3ccc(N(c4ccccc4)c4ccccc4)cc31)P(=O)(c1ccccc1)c1ccccc12 (stereo not given) showed an absorption maximum (in CC#N) of 440 nm, an absorption maximum (in CO) of 452 nm and an absorption maximum (in Cc1ccccc1) of 446 nm.

For CC(C)c1cc(C(C)C)c(B2c3ccccc3Oc3cc(-n4c5ccccc5c5c6c(c7ccccc7n6-c6ccccc6)c6c(c7ccccc7n6-c6ccccc6)c54)ccc32)c(C(C)C)c1, the absorption maximum (in Cc1ccccc1) was 458 nm.

Work on O=C1/C(=C2\Sc3ccccc3C2=O)Sc2ccccc21 yielded an absorption maximum (in C1COCCO1) of 536 nm, an absorption maximum (in CN(C)C=O) of 543 nm and an absorption maximum (in CO) of 538 nm. It also gave an absorption maximum (in CS(C)=O) of 545 nm and an absorption maximum (in c1ccccc1) of 544 nm.

For c1ccc2c(c1)Oc1ccccc1C21c2cc(-c3ccc4ccc5cccc6ccc3c4c56)ccc2-c2ccc(-c3ccc4ccc5cccc6ccc3c4c56)cc21, the absorption maximum (in ClC(Cl)Cl) was 364 nm.

CN1CCCc2cc(C3=Cc4cccc[n+]4[B-](F)(F)O3)ccc21 gave an absorption maximum (in ClC(Cl)Cl) of 438 nm.

Compound N#Cc1c(N2CCCCC2)cc(-c2cccc3ccccc23)c2c1C(=O)c1ccccc1-2 has an absorption maximum (in C1CCOC1) of 344 nm.

For CC(C)(C)c1ccc2oc3nc4oc5ccc(-n6c7ccccc7c7ccccc76)cc5c4cc3c2c1, the absorption maximum (in ClC(Cl)Cl) was 348 nm.

Compound COc1ccc(-c2nc(-c3ccc(C#N)cc3)[nH]c2-c2ccc(OC)cc2)cc1 has an absorption maximum (in CO) of 354 nm.

In the case of COC(=O)/C(C#N)=c1\s/c(=c2/s/c(=C(/C#N)C(=O)OC)c3cc(-c4ccccc4)sc23)c2sc(-c3ccccc3)cc12, the absorption maximum (in Cc1ccccc1) is reported as 605 nm.

In the case of CC(C)(C)c1ccc2c(c1)c1cc(C(C)(C)C)ccc1n2-c1ccc(-c2nc(-c3ccc(P(=O)(c4ccccc4)c4ccccc4)cc3)nc(-c3ccc(P(=O)(c4ccccc4)c4ccccc4)cc3)n2)cc1, the absorption maximum (in C1CCOC1) is reported as 364.73 nm, the absorption maximum (in CC#N) is reported as 361.43 nm and the absorption maximum (in CC(C)=O) is reported as 366.18 nm. The absorption maximum (in CN(C)C=O) was 365.92 nm, the absorption maximum (in Cc1ccccc1) was 375.96 nm and the absorption maximum (in ClC(Cl)Cl) was 435.78 nm. The absorption maximum (in ClCCl) was 375.3 nm.

For COc1cc2c(cc1-c1ccccc1)Cc1c3c(c4c(c1-2)-c1cc(OC)c(-c2ccccc2)cc1C4)C(=O)N(CCC(C)C)C3=O, the absorption maximum (in C1CCOC1) was 405 nm, the absorption maximum (in CC#N) was 406 nm and the absorption maximum (in CC(C)=O) was 407 nm. It also gave an absorption maximum (in CCOC(C)=O) of 405 nm, an absorption maximum (in CS(C)=O) of 413 nm and an absorption maximum (in Cc1ccccc1) of 405 nm. The absorption maximum (in ClC(Cl)Cl) was 414 nm and the absorption maximum (in ClCCl) was 411 nm.

COc1cccc2cc(-c3cc4cccc(OC)c4oc3=O)oc12 gave an absorption maximum (in CC#N) of 352 nm, an absorption maximum (in CCOC(C)=O) of 351 nm and an absorption maximum (in CS(C)=O) of 359 nm. For the same compound, the absorption maximum (in Cc1ccccc1) was 358 nm and the absorption maximum (in O) was 363 nm.

Clc1ccc(/C=C(\c2ccccc2)c2nc3ccccc3o2)cc1 gave an absorption maximum (in C1CCCCC1) of 330 nm and an absorption maximum (in CO) of 330 nm.

COc1ccc(-c2cccc3ncc(-c4ccccc4)n23)cc1 showed an absorption maximum (in ClCCl) of 332 nm.

With CCCCCCCCC1(CCCCCCCC)c2cc(-c3ccccc3)ccc2-c2ccc(-c3ccccc3)cc21 the absorption maximum (in ClC(Cl)Cl) was 327 nm.
